# Measurements from PMC9854762, “Antibiofilm and Anti-Quorum-Sensing Activities of Novel Pyrazole and Pyrazolo[1,5-a]pyrimidine Derivatives as Carbonic Anhydrase I and II Inhibitors: Design, Synthesis, Radiosterilization, and Molecular Docking Studies” (Antibiotics, 2023).
# Where two headings read alike, the source gives them in different places.
# How the values were obtained:
# S. pyogenes DH-3467 [1] = test: Broth microdilution MIC/MBC; format: cell-based, Streptococcus pyogenes; conditions: for MIC: Streptococcus pyogenes, DH3467, 24 h, read-out: MIC (Mean ± SEM); for MBC/MIC: value in brackets
# Method: (§1) The broth microdilution method was taken as a basis to detect the MICs of pyrazole compounds against tested clinical isolates, according to the Clinical Laboratory and Standards Institute guidelines. The broth cultures were used to prepare the bacterial inoculums, and the suspensions were adjusted to the standard 0.5 McFarland turbidity. Stock solutions of the synthesized pyrazoles were prepared in pure DMSO and further serially diluted with TS broth in the concentration range from 128 µg/mL to 0.0625 µg/mL. A well containing noninoculated TS broth, free of any antimicrobial agents, was also included to ensure the medium sterility, while Erythromycin and Amikacin served as positive controls. Bacterial growth was determined by adding 20 µL of 0.5% TTC (2,3,5-triphenyltetrazolium chloride) aqueous solution. […] All experiments were repeated three times. The bactericidal effect from each concentration of the pyrazole and pyrazolo[1,5-a]pyrimidine derivatives showing growth inhibition was further studied. For this study, a loopful of 5 µL was taken from each no-visible growth tube and streaked onto plates of TS agar.
# S. aureus DH-432 [2] = test: Broth microdilution MIC/MBC; format: cell-based, Staphylococcus aureus; conditions: for MIC: Staphylococcus aureus, DH432, 24 h, read-out: MIC (Mean ± SEM); for MBC/MIC: value in brackets
# Method: as §1
# S. pyogenes DH-3467 [3] = test: Agar well-diffusion assay; format: cell-based; conditions: Streptococcus pyogenes, DH3467; S. pyogenes DH-3467; 50 µL of 10 mM per well; read-out: Diameter of Inhibition Zones (AZOI)
# Method: (§2) The synthesized compounds were initially screened for their in vitro antibacterial activity against the different Gram-positive and Gram-negative bacteria, tested using the agar well-diffusion assay. The turbidity of the bacterial suspensions was established to the 0.5 McFarland turbidity standard. The activity was performed on TS agar plates. The bacteria were spread on the surface of the agar plates, and 10 mm wells were screwed into the agar plates. The assay was performed under aseptic conditions. An aliquot of 50 µL of each tested compound (10 mM) was added to the wells, and the plates were incubated overnight at 37 °C. Both Erythromycin and Amikacin antibiotic disks were used as positive control, while DMSO solvent was used as a negative control in this study. The diameters of inhibition zones were measured and recorded in mm. A comparative study of the synthesized compounds was determined. The experiment was performed in triplicates.
# A. baumannii DH-243 [4] = test: Agar well-diffusion assay; format: cell-based; conditions: Acinetobacter baumannii
# Method: as §2
# S. aureus DH-432 [5] = test: Agar well-diffusion assay; format: cell-based; conditions: Staphylococcus aureus, DH432; S. aureus DH-432; 50 µL of 10 mM per well; read-out: Diameter of Inhibition Zones (AZOI)
# Method: as §2
# E. faecalis DH-5478 [6] = test: Agar well-diffusion assay; format: cell-based; conditions: Enterococcus faecalis, DH5478; E. faecalis DH-5478; 50 µL of 10 mM per well; read-out: Diameter of Inhibition Zones (AZOI)
# Method: as §2
# E. coli DH-5987 [7] = test: Agar well-diffusion assay; format: cell-based; conditions: Escherichia coli, DH5987, 50 µL of 10 mM per well, read-out: Diameter of Inhibition Zones (AZOI)
# Method: as §2
# P. aeruginosa DH-5698 [8] = test: Agar well-diffusion assay; format: cell-based, Pseudomonus aeruginosa; conditions: Pseudomonas aeruginosa
# Method: as §2
# E. coli DH-5987 [9] = test: Broth microdilution MIC/MBC; format: cell-based, Escherichia coli; conditions: for MBC/MIC: value in brackets; for MIC: read-out: MIC (Mean ± SEM)
# Method: as §1
# E. faecalis DH-5478 [10] = test: Broth microdilution MIC/MBC; format: cell-based, Enterococcus faecalis; conditions: for MIC: Enterococcus faecalis, DH5478, 24 h, read-out: MIC (Mean ± SEM); for MBC/MIC: value in brackets
# Method: as §1
# P. aeruginosa DH-5698 [11] = test: Broth microdilution MIC/MBC; format: cell-based, Pseudomonus aeruginosa; conditions: for MIC: Pseudomonas aeruginosa, DH5698, 24 h, read-out: MIC (Mean ± SEM); for MBC/MIC: value in brackets
# Method: as §1
# A. baumannii DH-243 [12] = test: Broth microdilution MIC/MBC; format: cell-based, Acinetobacter baumannii; conditions: for MIC: Acinetobacter baumannii, DH243, 24 h, read-out: MIC (Mean ± SEM); for MBC/MIC: value in brackets
# Method: as §1
# [13] = DH243, A. baumannii DH-243, 50 µL of 10 mM per well, read-out: Diameter of Inhibition Zones (AZOI)
# [14] = DH5698, P. aeruginosa DH-5698, 50 µL of 10 mM per well, read-out: Diameter of Inhibition Zones (AZOI)
# [15] = Escherichia coli, DH5987, E. coli DH-5987, 24 h
Compound,MIC (S. pyogenes DH-3467 [1]) [µg/mL],MBC/MIC (S. pyogenes DH-3467 [1]),MIC (S. aureus DH-432 [2]) [µg/mL],MBC/MIC (S. aureus DH-432 [2]),zone of inhibition at 10000 µM (S. pyogenes DH-3467 [3]) [mm],zone of inhibition at 10000 µM (A. baumannii DH-243 [4]; [13]) [mm],zone of inhibition at 10000 µM (S. aureus DH-432 [5]) [mm],zone of inhibition at 10000 µM (E. faecalis DH-5478 [6]) [mm],zone of inhibition at 10000 µM (E. coli DH-5987 [7]) [mm],zone of inhibition at 10000 µM (P. aeruginosa DH-5698 [8]; [14]) [mm],MBC/MIC (E. coli DH-5987 [9]; E. coli DH-5987),MIC (E. coli DH-5987 [9]; [15]) [µg/mL],MIC (E. faecalis DH-5478 [10]) [µg/mL],MBC/MIC (E. faecalis DH-5478 [10]),MIC (P. aeruginosa DH-5698 [11]) [µg/mL],MBC/MIC (P. aeruginosa DH-5698 [11]),melting point [°C],MIC (A. baumannii DH-243 [12]) [µg/mL],MBC/MIC (A. baumannii DH-243 [12]),also measured
"CCOC(=O)c1ccc(N=Nc2c(N)nn(C(O)=CC#N)c2N)cc1 [Compound 4, Ethyl 4-((3,5-diamino-1-(2-cyano-1-hydroxyvinyl)-1H-pyrazol-4-yl)diazenyl)benzoate]",1.5 ± 0.3,0.5,1 ± 0.4,0.5,23.4,21.3,24.7,22.1,22.4,20.5,1,0.75 ± 0.3,2 ± 0.3,0.5,1.5 ± 0.2,1,290 to 292,2 ± 0.4,0.5,–
"CCOC(=O)c1ccc(N=Nc2c(N)nn3c(-c4ccc(Cl)cc4)cc(-c4ccccc4)nc23)cc1 [Compound 8c, Ethyl-4-((2-amino-7-(4-chlorophenyl)-5-phenylpyrazolo[1,5-a]pyrimidin-3-yl)diazenyl)benzoate]",4 ± 0.2,2,4 ± 0.1,1,15.4,15.2,16.1,15.1,17.8,16.3,2,4 ± 0.1,8 ± 0.2,2,8 ± 0.3,2,–,8 ± 0.4,2,–
"CCOC(=O)c1ccc(N=Nc2c(N)nn(C(N)=S)c2N)cc1 [Compound 3c, Ethyl 4-((3,5-diamino-1-carbamothioyl-1H-pyrazol-4-yl)diazenyl)benzoate]",0.75 ± 0.2,0.5,0.75 ± 0.2,1,22.6,22.5,23.8,21.3,24.7,23.2,0.5,0.75 ± 0.5,1 ± 0.3,1,1 ± 0.3,1,280 to 282,2 ± 0.2,1,–
"CCOC(=O)c1ccc(N=Nc2c(N)nn3c(N)c(C#N)c(-c4ccc(OC)cc4)nc23)cc1 [Compound 9b, Ethyl-4-((2,7-diamino-6-cyano-5-(4-methoxyphenyl)pyrazolo[1,5-a]pyrimidin-3-yl)diazenyl)benzoate]",2 ± 0.3,0.5,1.5 ± 0.2,1,25.7,23,25,24.3,26.5,25.4,0.5,1 ± 0.3,2 ± 0.2,1,1.5 ± 0.2,0.5,210 to 212,2 ± 0.1,1,–
"CCOC(=O)c1ccc(N=Nc2c(N)nn3c(O)c(C#N)c(-c4ccc(Cl)cc4)nc23)cc1 [Compound 10b, Ethyl 4-((2-amino-5-(4-chlorophenyl)-6-cyano-7-hydroxypyrazolo[1,5-a]pyrimidin-3-yl)diazenyl)benzoate]",1.5 ± 0.2,0.5,1.5 ± 0.3,0.5,26.3,24.2,26.8,25.1,27.1,26.3,0.5,0.75 ± 0.1,2 ± 0.3,1,1.5 ± 0.1,0.5,270 to 272,2 ± 0.2,1,–
"CCOC(=O)c1ccc(N=Nc2c(N=Cc3ccc(OC)cc3)n[nH]c2N)cc1 [Compound 5b, Ethyl-4-((5-amino-3-((4-methoxybenzylidene)amino)-1H-pyrazol-4-yl)diazenyl)benzoate]",1 ± 0.2,1,1 ± 0.3,1,24.1,23.4,26.2,25.4,25.7,24.7,0.5,1 ± 0.2,1.5 ± 0.3,1,2 ± 0.3,1,210 to 212,2 ± 0.1,0.5,–
"CCOC(=O)c1ccc(N=Nc2c(N)nn3c(N)c(C#N)c(-c4ccc(Cl)cc4)nc23)cc1 [Compound 9c, Ethyl-4-((2,7-diamino-5-(4-chlorophenyl)-6-cyanopyrazolo[1,5-a]pyrimidin-3-yl)diazenyl)benzoate]",2 ± 0.1,1,2 ± 0.3,1,23.5,23.9,24.2,23.1,25.2,24.1,1,1 ± 0.3,4 ± 0.2,1,2 ± 0.2,1,288 to 290,4 ± 0.4,1,–
"CCOC(=O)c1ccc(N=Nc2c(N)nn3c2N=C(C)CC3=O)cc1 [Compound 7, ethyl 4-((2-amino-5-methyl-7-oxo-6,7-dihydropyrazolo[1,5-a]pyrimidin-3-yl)diazenyl)benzoate]",1.5 ± 0.2,1,1 ± 0.3,1,22.8,24.5,25.3,23,25.8,24,0.5,1.5 ± 0.2,2 ± 0.4,1,2 ± 0.3,0.5,296 to 298,2 ± 0.3,1,–
"NCC[C@H](O)C(=O)N[C@@H]1C[C@H](N)[C@@H](O[C@H]2O[C@H](CN)[C@@H](O)[C@H](O)[C@H]2O)[C@H](O)[C@H]1O[C@H]1O[C@H](CO)[C@@H](O)[C@H](N)[C@H]1O [AK, Amikacin, reference compound]",–,–,–,–,–,–,–,–,11,–,4,32,–,–,128 ± 0.1,4,–,128 ± 0.2,4,"zone of inhibition at 10000 µM (A. baumannii DH-243 [4]; DH243, read-out: Diameter of Inhibition Zones (AZOI)): 13 mm; zone of inhibition at 10000 µM (P. aeruginosa DH-5698 [8]; DH5698, read-out: Diameter of Inhibition Zones (AZOI)): 14 mm; MIC (Mean ± SEM) (E. coli DH-5987 [9]; E. coli DH-5987, 24 h): 32 ± 0.2 µg/mL; MBC (E. coli DH-5987 [9]; Escherichia coli, DH5987, E. coli): 128 µg/mL"
